In test [1] the test system is HCT-15 colorectal cancer cell line. The test can be described thus: Relative viability of G6PD knock-out HCT-15 clones treated with asparaginase. In kind it is cell-based, human. The following applies: G6PD knock-out (KO) clones of HCT-15 versus wild-type. The procedure:
FIG. 5a, Western blot analysis of G6PD protein expression levels in parental HCT-15 cells (G6PD wild-type) and two distinct G6PD knock-out (KO) clones generated by CRISPR-Cas9 induced gene deletion. FIG. 5b, control (G6PD wild-type) or G6PD knockout (KO) clones of the HCT-15 colorectal cancer cell line were treated with asparaginase at the indicated doses, and relative cell viability was assessed by counting the number of live cells based on trypan blue vital dye staining, with cell counts normalized to those in cells with no-asparaginase controls.

For test [2], the system named is NADP/NADPH ratio in HCT-15 cells. Description: NADP/NADPH ratio, NADP/NADPH Assay Kit (colorimetric, OD 450 nm). It counts as cell-based, human. The procedure: FIG. 8a, HCT-15 cells were transduced with the indicated shRNAs and with the indicated doses of asparaginase, and the ratio of NADP to NADPH was measured using the NADP/NADPH Assay Kit (abcam product #ab65349). Relative NADP/NADPH ratio was assessed by microplate reader based on colorimetric signals (OD 450 nm), with colorimetric signal normalized to those in shLuc cells with no-asparaginase controls. FIG. 8b, the colorectal cancer cell line HCT-15 was treated with vehicle, asparaginase (500 U/L), G6PDi-1 (30 μM) or combination treatment. […] was measured by NADP/NADPH Assay Kit (ab65349) in indicated cells. Relative NADP/NADPH ratio was assessed by microplate reader based on colorimetric signals (OD 450 nm), with colorimetric signal normalized to those in shLuc cells with no-asparaginase controls.

The subject of test [3] is HCT-15 colorectal cancer cells. The test can be described thus: Relative viability of HCT-15 cells with CRISPR interference of RPIA and RPE, treated with asparaginase. It counts as cell-based, human. The following applies: HCT-15 with dCas9-KRAB and guide RNAs targeting RPIA and RPE promoters. The method, then: HCT-15 colorectal cancer cells were transduced with a so-called CRISPR interference system, consisting of a dCas9-KRAB expression construct and guide RNAs targeting the promoters of RPIA and RPE, to inhibit expression of these enzymes. Cells were then treated with vehicle or asparaginase at the indicated doses. Relative viability was assessed by counting viable cells based on trypan blue vital dye staining, with cell counts normalized to those in cells with no-asparaginase controls.

The test system of test [4] is ROS levels in HCT-15 cells. Description: Reactive oxygen species levels, Cellular ROS Assay Kit. In kind it is cell-based, human. The following applies: G6PD deficient (shG6PD #1 and #2) HCT-15 cells, indicated doses. The method, then:
HCT-15 cells were transduced with negative control shRNA (shLuciferase, shLuc) or with two distinct G6PD-targeting shRNAs (shG6PD #1 and #2), treated with asparaginase at the indicated doses, and reactive oxygen species (ROS) levels were assessed using the Cellular ROS Assay Kit (Abcam, product number ab113851) in shLuc (control). ROS levels were measured by fluorescence microplate reader, and were normalized to those in shLuc-transduced, no-asparaginase controls. […] Results are shown as means±SEM; n=3. ****P<0.0001.

For test [5], the system named is mouse intestinal organoid models of colorectal cancer. Description: Subcutaneous AKP organoid tumors in immunodeficient mice, tumor volume. In kind it is in vivo. The following applies: G6pdx-deficient (shG6pdx) organoid tumors, asparaginase 1,000 U/kg. An excerpt: Left panel, Mouse intestinal organoids with Apc deficiency, Kras activating mutations, and Tp53 loss (so-called AKP organoids) were transduced with two distinct control shRNAs (shGFP and shLuciferase), or two distinct shRNAs targeting G6pdx (the mouse G6PD gene). Knockdown of G6pdx protein expression was confirmed by Western blot analysis.
Organoids were transduced with control (shLuc) and two distinct shG6pdx-targeting shRNAs (see FIG. 10), and injected subcutaneously into immunodeficient mice. After engraftment of tumors (defined as tumors reaching a volume of 150 mm3), mice were treated with vehicle (phosphate-buffered saline, PBS) or asparaginase (1,000 U/kg), and tumor volumes were followed. Asparaginase or PBS were re-dosed at the time points indicated by the black arrows.

Test [6] deals with NADP/NADPH ratio in HCT-15 G6PD knock-out cells. The test can be described thus: NADP/NADPH ratio by liquid chromatography/mass spectrometry in G6PD knock-out clones. It counts as cell-based, human. The following applies: HCT-15 G6PD knock-out clones #1 and #2, asparaginase 500 U/L. The procedure: HCT-15 cells that were either G6PD wild-type (WT) parental cells, or G6PD knock-out clones #1 and #2, were treated by vehicle or asparaginase (500 U/L). NADP/NADPH ratio was measured by liquid chromatography/mass spectrometry, and levels are shown normalized to those in HCT-15 cells with no-asparaginase controls.

Test [7] has as its system colorectal cancer cell lines HCT-15 and HT-29. The test can be described thus: Relative viability (trypan blue viable cell counts) with G6PDi-1 plus asparaginase. It counts as cell-based, human. The following applies: G6PDi-1 30 μM with indicated doses of asparaginase. The procedure:
(§1) FIG. 3a colorectal cell lines, HCT-15 and HT-29 were treated with small molecule inhibitor G6PDi at the indicated concentrations and activity of G6PD was assessed. FIGS. 3b-3c Colorectal cancer cell lines, HCT-15 (FIG. 3b) and […] (FIG. 3c) were treated with vehicle or G6PDi-1 (30 μM) and with the indicated doses of asparaginase. Relative viability was assessed by counting viable cells based on trypan blue vital dye staining, with cell counts normalized to those in cells with no-asparaginase controls.

Test [8] has as its target T1, G6PD (Homo sapiens, UniProt P11413).
T1 construct: endogenous in cells; host or cells: HCT-15 and HT-29 colorectal cancer cell lines
Description: G6PD activity assay in colorectal cell lines treated with G6PDi. It counts as cell-based. The following applies: HCT-15 and HT-29 treated with G6PDi at the indicated concentrations. The procedure:
as §1

For test [9], the system named is Apc-deficient organoids with mutations of Tp53 and Kras. The test can be described thus: Organoid viability (counting viable organoids). It counts as cell-based, mouse. The following applies: 500 U/L asparaginase + 100 μM G6PDi-1, basal medium. The procedure: FIG. 4a Apc-deficient organoids with mutations of Tp53 and Kras were cultured in basal medium and treated with vehicle, asparaginase (500 U/L), G6PDi-1 (100 μM), or combo (500 U/L asparaginase+100 μM G6PDi-1). FIG. 4b Viability of organoids from FIG. 4a was assessed by counting viable organoids. Data is relative to vehicle treatment group.

“Also recorded” adds a separate entry of the source.

T1 sequence (P11413 whole entry): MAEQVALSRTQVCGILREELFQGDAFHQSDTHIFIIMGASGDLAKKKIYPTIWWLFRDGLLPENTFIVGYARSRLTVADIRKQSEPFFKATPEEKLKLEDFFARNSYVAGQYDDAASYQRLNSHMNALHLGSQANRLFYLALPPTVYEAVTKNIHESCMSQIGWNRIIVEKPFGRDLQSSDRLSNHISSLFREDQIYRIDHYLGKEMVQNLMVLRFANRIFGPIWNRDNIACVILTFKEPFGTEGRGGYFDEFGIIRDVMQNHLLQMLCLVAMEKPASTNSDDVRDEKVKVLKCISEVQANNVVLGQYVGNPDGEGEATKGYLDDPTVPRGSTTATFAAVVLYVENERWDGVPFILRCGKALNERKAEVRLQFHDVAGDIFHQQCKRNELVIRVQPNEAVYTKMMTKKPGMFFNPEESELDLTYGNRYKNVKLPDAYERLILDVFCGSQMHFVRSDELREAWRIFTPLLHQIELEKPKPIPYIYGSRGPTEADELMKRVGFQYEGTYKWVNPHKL

Regarding asparaginase, the “asparaginase sensitivity (relative cell viability)” value in [1] is reported as “induces asparaginase sensitivity”. The “relative NADP/NADPH ratio on asparaginase treatment” value in test [2] (HCT-15 cells depleted of G6PD (shRNA or G6PDi-1 30 μM), asparaginase 500 U/L or indicated doses) was “further increased the NADP/NADPH ratio; also recorded: further increase of NADP/NADPH ratio”. The “relative viability on asparaginase treatment” value in test [3] is on record as “None of the differences were statistically significant”. Besides, the “reactive oxygen species levels on asparaginase treatment” value in test [4] is on record as “not further elevated”. In test [5], the “tumor volume / therapeutic activity” value is listed as “tumor volumes were reduced; also recorded: significant therapeutic activity”. Besides, the “NADP/NADPH ratio on asparaginase treatment (LC/MS)” value in test [6] is listed as “further increase of NADP/NADPH ratio”.
Regarding G6PDi-1, in test [7], the “sensitivity to asparaginase (relative viability)” value was “induce sensitivity to asparaginase”. The G6PD activity entry in [8] is “reduce G6PD activity”. Also, in test [9], the “asparaginase sensitivity in organoids (viable organoids relative to vehicle)” value is “induce asparaginase sensitivity”. For the same substance, the “relative NADP/NADPH ratio on G6PD inhibition” value in [2] (HCT-15 cells, G6PDi-1 30 μM) is on record as “increased”.

(Values after patent publication US20240024436A1, “METHOD FOR TREATING CANCER” (CHILDREN'S MEDICAL CENTER CORPORATION, priority 2022, published 2024).)
